Source: patent US7323620B2, “Activation of equine oocytes” (Idaho Research Foundation, Inc., priority 2002, dated 2008)

What was measured:
Oocytes from mules = assay: Additional data in mules: calcium concentration in activation medium and peripheral media, pregnancies after nuclear transfer; format: in vivo, mule
Excerpt: The procedures of the above examples were repeated in order to compare results obtained with different concentrations of calcium in the activation medium and in peripheral media, that is media other than the activation medium. Oocytes from mules were placed into one of four groups as follows: In Groups 1 to 3, media was as described above in Examples 1 to 5, except for calcium concentration, which is as described below. In Group 4, media was HECM media.
Tissue Culture Medium (TCM)—199 with Earl's salts • 1.4 mM CaCl2 (1×) • 10% Fetal Bovine Serum (FBS) • 0.05 units FSH • 0.05 units LH • 100 units penicillin • 100 micrograms streptomycin Manipulation Medium:
PB1 (Whittingham, D G, J. Reprod. Fert., 37(1):159-162 (1974) • Dulbecco's phosphate buffered saline • 1.4 mM CaCl2 (1×) • 0.5 mM MgCl2 • 0.33 mM Na-pyruvate • 5.56 mM Glucose • 3 mg/ml Bovine Serum Albumin (BSA)—fraction 5 • 100 units penicillin • 10 micrograms streptomycin Transfer Medium
PB1 (as in Manipulation Medium) except 0.7 mM CaCl2 (1×)
(§1) Holding/Activation/Culture Medium for Group 4 in Example 9 and in horses in Example 10 • HECM (Ball et al., Amer. J. Vet. Res., 54(7):1139-44 (1993) • Ham's F-12+Dulbecco's […] (DMEM)—(50:50, v:v) • 0.71 mM CaCl2 (1×) • 29 mM NaHCO3 • 5 micrograms/ml insulin • 5 micrograms/ml transferrin • 5 ng/ml Na-selenite • 10 ng/ml EGF • 50 IU penicillin • 50 micrograms streptomycin

equine oocytes = assay: Nuclear transfer with activation of oocytes in calcium chloride/ionomycin activation medium, embryo transfer and pregnancy detection by transrectal ultrasonography (cloned mule embryos); format: in vivo, mule (donor cells); recipient mare Equus caballus
Description: A primary culture of fibroblast cells was established from a 45-day mule fetus recovered from a domestic horse mare using transcervical uterine lavage. Culture medium was Glasgow MEM BHK-21 supplemented with 10% FBS, 100 units/ml penicillin, and 100 μg/ml streptomycin. Incubation was performed at 38.5° C. in a humidified atmosphere of 5% CO2 in air. Prior to the nuclear transfer procedure, the fibroblast cells were serum “starved” for 5 to 10 days by placing them into medium with 0.5% FBS.
Mares that were used as oocyte donors and as cloned-embryo recipients were of mixed breeding, 3 to 12 years old, and weighed 300 to 500 kg. The reproductive tracts of the mares were monitored by transrectal palpation and ultrasonography to assess follicular activity, ovulation, and the presence and degree of endometrial edema.
Oocytes were collected by one of three methods.
1. Recent (≦12 hours) post-ovulatory oocytes (n=12) were collected by surgically excising the oviduct ipsilateral to ovulation and then flushing the oviduct in a retrograde manner with modified DPBS.
2. Pre-ovulatory oocytes (n=3) were collected by surgically excising ovaries containing a pre-ovulatory follicle (≧35 mm) approximately 30 hours after administration of 2500 IU hCG and then manually aspirating the follicle.
3. Pre-ovulatory oocytes (n=180) were collected using transvaginal aspiration (TVA) of pre-ovulatory follicles approximately 24 hours after administration of 2500 IU hCG.
Oocytes collected post-ovulation were incubated for up to 6 hours in maturation medium (M-199) containing 10% FBS, 0.05 units/ml pFSH, 0.05 units/ml pLH, 10 units/ml penicillin and 10 μg/ml streptomycin. Oocytes collected pre-ovulation were incubated in maturation medium for approximately 12 hours.
Cumulus-free metaphase II oocytes and starved donor cells were placed in a manipulation drop of TL HEPES containing 7.5 μg of cytochalasin B. The first polar body and metaphase plate of the oocytes were drawn into a 25-28 ID enucleation pipette. The same pipette was used to aspirate a disaggregated donor cell nucleus and place it in the perivitelline space of an oocyte to obtain an NT couple. Fusion of NT couples was induced by a single 15 μsec, 2.2 kv/cm DC pulse in a 3.5 mm fusion chamber. Fusion medium was […] D-mannitol containing 0.5 mM HEPES and 0.05% fatty acid-free BSA. Fused NT couples were activated by placing them in an activation medium containing calcium chloride and ionomycin for 8 minutes. Three different concentrations of calcium chloride were used in the activation medium: 2 mM (n=133 oocytes), 6 mM (n=40 oocytes), and 20 mM (n=22 oocytes).
Immediately following nuclear transfer and activation, the oocytes, hereafter referred to as embryos, were surgically transferred to the oviduct of a recipient mare (Equus caballus) that had ovulated within 24 hours prior to the transfer. One to nine embryos were transferred to each mare. Pregnancy examinations on the recipient mare were performed using transrectal ultrasonography beginning on Day 12 post-transfer.

horse oocytes = assay: Data in horses: protocol of Group 4 of Example 9 repeated with horse oocytes; format: in vivo
Description: The protocol of Group 4 of Example 9 was repeated with […] horse oocytes. Of these, pregnancy was detected at two weeks in 6 mares, […]. Of these 6, 3 pregnancies were detected at 30 days and 1 was detected at 45 days.
as §1

[1] = Group 4 (6x Ca activation, 3x peripheral media)
[2] = 2 mM calcium in activation medium
[3] = 6 mM calcium in activation medium
[4] = 20 mM calcium in activation medium
[5] = Group 4 protocol (6x Ca activation, 3x peripheral media), 59 horse oocytes
[6] = Group 4 protocol, of 6 two-week pregnancies

Structure (SMILES): [Ca+2].[Cl-].[Cl-] [calcium chloride]
- Two-week pregnancies detectable at 30 days (Oocytes from mules; Group 1 (1x Ca all media), of 2 two-week pregnancies): neither
- PREGNANCIES (2 weeks) (Oocytes from mules; Group 1: 1x Ca (about 2 mM) all media): (1.7%)
- PREGNANCIES (2 weeks), number (Oocytes from mules; Group 1: 1x Ca (about 2 mM) all media, 115 oocytes): 2
- Two-week pregnancies detectable at 30 days (Oocytes from mules; Group 2 (3x Ca activation medium), of 3 two-week pregnancies): 2
- PREGNANCIES (2 weeks) (Oocytes from mules; Group 2: 3x Ca (about 6 mM) in activation media, 1x Ca all other media): (7.5%)
- PREGNANCIES (2 weeks), number (Oocytes from mules; Group 2: 3x Ca (about 6 mM) in activation media, 1x Ca all other media, 40 oocytes): 3
- PREGNANCIES (2 weeks) (Oocytes from mules; Group 3: 10x Ca (about 20 mM) in activation media, 1x Ca all other media): (9.09%)
- PREGNANCIES (2 weeks), number (Oocytes from mules; Group 3: 10x Ca (about 20 mM) in activation media, 1x Ca all other media, 22 oocytes): 2
- Pregnancies detectable at 45 days (Oocytes from mules; [1]): Five
- Pregnancies detectable at 120 days (Oocytes from mules; [1]): 3
- Two-week pregnancies detectable at 30 days (Oocytes from mules; Group 4 (6x Ca activation, 3x peripheral media), of 12 two-week pregnancies): 9
- PREGNANCIES (2 weeks) (Oocytes from mules; Group 4: 6x Ca (about 12 mM) in activation media, 3x Ca all other media, HECM media): (14.4%)
- PREGNANCIES (2 weeks), number (Oocytes from mules; Group 4: 6x Ca (about 12 mM) in activation media, 3x Ca all other media, HECM media, 132 oocytes): 19
- Pregnancy Rate (equine oocytes; [2]): (1.5%)
- Pregnancy Rate (pregnancies/oocytes) (equine oocytes; [2]): 2/133
- Pregnancy Rate (equine oocytes; [3]): (7.5%)
- Pregnancy Rate (pregnancies/oocytes) (equine oocytes; [3]): 3/40
- Ultrasonography of cloned mule conceptus (equine oocytes; 6 mM calcium in activation medium, Day 32 of gestation): an embryonic heart was evident
- Pregnancy Rate (equine oocytes; [4]): (9.1%)
- Pregnancy Rate (pregnancies/oocytes) (equine oocytes; [4]): 2/22
- Pregnancies, higher versus lower calcium (equine oocytes; 6 and 20 mM combined compared to 2 mM in activation medium, P<0.05): more pregnancies
- Pregnancy detected at two weeks (horse oocytes; [5]): 4.4%
- Pregnancy detected at two weeks, number of mares (horse oocytes; [5]): 6
- Pregnancies detected at 30 days (horse oocytes; [6]): 3
- Pregnancies detected at 45 days (horse oocytes; [6]): 1
